Source: US9556217B2, “Amphiphilic compounds” (WISCONSIN ALUMNI RESEARCH FOUNDATION, priority 2012, dated 2017)

How the values were obtained:
[1] = tested on: β2AR-T4L; assay: β2AR-T4L thermostability (Tm, carazolol fluorescence); parameters: species or system human; conditions: for β2AR-T4L Tm comparison at higher concentrations: higher concentrations than CMC+0.05 wt %
Method: To assess the new amphiphiles with a GPCR, a human 132 adrenergic receptor-T4-lysozyme fusion protein (β2AR-T4L) was used (Rosenbaum et al., Science 2007, 318, 1266-1273). Stability was assessed via […] of β2AR-T4L bound to the inverse agonist carazolol. β2AR-T4L was initially solubilized and purified with DDM, and this detergent was then exchanged for the agent to be evaluated. The fluorescence emission maximum of carazolol occurs at 356 nm in aqueous solution, but emission is shifted to 341 nm in the receptor-bound state. The 341:356 nm peak intensity ratio was used to monitor the relative amounts of intact and denatured β2AR-T4L, with Tm defined as the temperature at which the 341:356 nm peak intensity ratio is half-way between that of fully native receptor and the fully denatured receptor.
Stability of β2AR-T4L was assessed by measuring the melting temperature (Tm) of the receptor according to the procedure reported by Chae and coworkers (Nat. Methods 2010, 7, 1003-1008).
A receptor fusion protein of T4 lysozyme inserted in the 3rd intracellular loop of the β2AR^4 was cloned into BestBac baculovirus (Expression Systems, CA) and expressed in Sf9 insect cell cultures. The receptor was solubilized and purified in DDM as previously described (Kobilka, Anal. Biochem. 1995, 231, 269-271). […]
For stability measurements the carazolol-bound receptor was diluted below the CMC for DDM by adding 3 μL of the concentrated receptor in a quartz cuvette containing 600 μL buffer (100 mM NaCl, 20 mM HEPES, pH 7.5) with amphiphiles at various concentrations above their CMC. […] Fluorescence emission from carazolol was obtained following 5 min incubations from 25 to 85° C. in twelve continuous 5° C. increments. Excitation was set at 325 nm, and emission was measured from 335 to 400 nm with an integration time of 0.3 s nm-1 using a bandpass of 1 nm for both excitation and emission. The 341:356 nm peak ratio was calculated and graphed using Microsoft Excel and GraphPad Prism software.

[2] = Hydrodynamic radius of micelles by dynamic light scattering; type: physicochemical; conditions: Mean ± SD, n = 5
From the text: These values are somewhat smaller than the CMC of DDM, which indicates a strong tendency of the new agents to self-assemble, and which can be advantageous for IMP handling because detrimental levels of non-micellar amphiphile can be avoided. Table 1 provides the hydrodynamic radius (Rh) of the micelles formed by each amphiphile, as determined by dynamic light scattering (DLS). The micelles formed by GLC amphiphiles are slightly smaller than those formed by DDM, while the micelles formed by GDN are slightly larger.

[3] = tested on: R. capsulatus LHI-RC superassembly; assay: R. capsulatus LHI-RC superassembly stability (A875/A680); parameters: species or system Rhodobacter capsulatus; conditions: CMC+0.04 wt %, RT, 875 nm/680 nm absorbance ratio
Method: Next a more challenging system, the photosynthetic superassembly from Rhodobacter capsulatus (Laible et al., Biochemistry 2003, 42, 1718-1730), was analyzed. This photosynthetic superassembly contains the light harvesting I (LHI) complex and the reaction center (RC) complex. The superassembly contains >30 protein molecules; integrity can be assessed based on the 875 nm/680 nm absorbance ratio (Chae et al., ChemBioChem 2008, 9, 1706-1709). The superassembly was extracted from the native membrane with 1.0 wt % DDM and purified with DDM at its CMC (0.009 wt %). […]
The stability of R. capsulatus superassembly was assessed according to the protocol described by Chae and coworkers (J. Am. Chem. Soc. 2010, 132, 16750-16752).
For the stability assay, DDM-solubilized material was transferred into a new microcentrifuge tube containing Ni-NTA resin (Qiagen, Inc.; Valencia, Calif.; pre-equilibrated and stored in an equal volume of buffer containing 10 mM Tris, pH 7.8, and 100 mM NaCl). After a 1 h incubation at 4° C. for binding, the resins were washed twice with 0.5 mL of binding buffer (a pH 7.8 Tris solution containing DDM at 1×CMC) and eluted three times with 0.20 mL elution buffer aliquots containing 1 M imidazole (otherwise, this buffer was identical to binding buffer; the pH of each solution was readjusted to pH=7.8). […]

[4] = Critical micelle concentration (fluorescent dye solubilization); type: physicochemical
From the text: The “Critical Micelle Concentration” (CMC) refers to the concentration of a detergent (e.g., an amphiphile as described herein) in an aqueous solution at which the detergent molecules self-assemble into micelles. Below the CMC, detergents are mostly monomeric; above the CMC, micelle concentration increases linearly with detergent concentration. The CMC is dependent upon many factors and is detergent-specific. The CMC of a detergent can be determined experimentally by measuring the solubilization of a water-insoluble dye or fluorophore while varying the concentration of detergent. A CMC may also be determined by measuring the diminution of the surface tension of an aqueous solution as a function of detergent concentration (CMCs determined by either method correlate with each other). The CMC is determined by extrapolating the plot of solubilization vs. concentration (or surface tension vs. concentration) in the two linear regions above and below the CMC. Where the two lines intersect is the CMC. The CMC can also be determined by the method of Nugebauer, J. M. (1990), Methods in Enzymology, 182:239-253.
The four compounds were readily prepared on a multi-gram scale (see Examples 1 and 2 below, and FIGS. 13-15), as is necessary if they are to serve as research tools. All four are highly soluble in aqueous solution (>20 wt %) and have relatively low critical micelle concentrations (CMC; determined by fluorescent dye solubilization).

SMILES	β2AR-T4L Tm comparison at higher concentrations [1]	Rh (nm), hydrodynamic radius of micelles [2]	LHI-RC superassembly stability over 20 days relative to DDM or OG [3]	CMC [4]	CMC (wt %) [4]	β2AR-T4L Tm comparison at relatively low concentrations ([1]; <CMC+0.05 wt %)
CO[C@@H]1CC[C@@]2(C)[C@H](CC[C@@H]3[C@@H]2CC[C@]2(C)[C@@H]([C@H](C)CCCOCC(C)(CO[C@@H]4OC(CO)C(O[C@@H]5OC(CO)[C@@H](O)[C@H](O)C5O)[C@@H](O)C4O)CO[C@@H]4OC(CO)[C@@H](O[C@H]5OC(CO)[C@@H](O)[C@H](O)C5O)[C@H](O)C4O)CC[C@@H]32)C1 (some centres unmarked) [GLC-2]	superior to DDM	3.32 ± 0.04 nm	substantially more stable	~8.0 µM	~0.0009 wt %	
CCCCCCCCCCCCO[C@@H]1O[C@H](CO)[C@@H](O[C@H]2O[C@H](CO)[C@@H](O)[C@H](O)[C@H]2O)[C@H](O)[C@H]1O [DDM, dodecyl-β-D-maltoside, reference compound]		3.42 ± 0.03 nm		~170 µM	~0.0087 wt %	superior to the new amphiphiles
C[C@@H]1CC[C@@]2(OC1)O[C@H]1C[C@H]3[C@@H]4CC=C5C[C@@H](OCCC(CO[C@@H]6OC(CO)[C@@H](O[C@H]7OC(CO)[C@@H](O)C(O)C7O)C(O)C6O)CO[C@@H]6OC(CO)[C@@H](O[C@H]7OC(CO)[C@@H](O)C(O)C7O)C(O)C6O)CC[C@]5(C)[C@H]4CC[C@]3(C)[C@@H]1[C@@H]2C (some centres unmarked) [GDN, glyco-diosgenin]	superior to DDM	3.86 ± 0.05 nm	substantially more stable	~18 µM	~0.0021 wt %	
